Test results published in patent US11419335B2, “N-arylated analogues and uses thereof” (University of Florida Research Foundation, Incorporated, priority 2016, dated 2022).
Marks after values point to notes of the source that are not given here.

Columns and labels:
[1] = system: Pseudomonas aeruginosa (PAO1); experiment: MIC broth microdilution, PAO1; format: cell-based
Method: (§1) The minimum inhibitory concentration (MIC) for each tested compound was determined by the broth microdilution method as recommended by the Clinical and Laboratory Standards Institute (CLSI). In a 96-well plate, eleven two-fold serial dilutions of each compound were made in a final volume of 100 μL Luria Broth. Each well was inoculated with ˜10^5 bacterial cells at the initial time of incubation, prepared from a fresh log phase culture (OD600 of 0.5 to 1.0 depending on bacterial strain). The MIC was defined as the lowest concentration of compound that prevented bacterial growth after incubating 16 to 18 hours at 37° C. (MIC values were supported by spectrophotometric readings at OD600). DMSO served as our vehicle and negative control in each microdilution MIC assay. DMSO was serially diluted with a top concentration of 1% v/v.
as §1, with “for each compound was” for “for each tested compound was”, “Standards Institute (CLSI).^6 In a” for “Standards Institute (CLSI). In a”, “concentration of test compound that” for “concentration of compound that”, “37° C. The concentration range tested for each compound during this study was 0.10 to 100 μM. DMSO served” for “37° C. (MIC values were supported by spectrophotometric readings at OD600). DMSO served”, “1% v/v. All MIC values were obtained from a minimum of three independent experiments.” for “1% v/v.”

[2] = system: methicillin-resistant Staphylococcus aureus MRSA-2 (clinical isolate); experiment: MIC broth microdilution, MRSA-2; format: cell-based
Method: as §1
as §1, with “for each compound was” for “for each tested compound was”, “Standards Institute (CLSI).^6 In a” for “Standards Institute (CLSI). In a”, “concentration of test compound that” for “concentration of compound that”, “37° C. The concentration range tested for each compound during this study was 0.10 to 100 μM. DMSO served” for “37° C. (MIC values were supported by spectrophotometric readings at OD600). DMSO served”, “1% v/v. All MIC values were obtained from a minimum of three independent experiments.” for “1% v/v.”

MRSA BAA-1707 = experiment: MIC broth microdilution, MRSA BAA-1707; format: cell-based, Staphylococcus aureus
Method: as §1, with “The MIC was defined as the lowest concentration of compound that prevented bacterial growth after incubating 16 to 18 hours at 37° C.” left out
(§2) Each well was inoculated with ˜10^5 bacterial cells at the initial time of incubation, prepared from a fresh log phase culture (OD600 of 0.5 to 1.0 depending on bacterial strain). […] The concentration range tested for each compound during this study was 0.10 to 100 μM. DMSO served as our vehicle and negative control in each microdilution MIC assay. DMSO was serially diluted with a top concentration of 1% v/v. All MIC values were obtained from a minimum of three independent experiments.

[3] = system: vancomycin-resistant Enterococcus faecium (VRE strain ATCC 700221); experiment: MIC broth microdilution, VRE 700221; format: cell-based; settings: for MIC E. faecium VRE 700221: Table 1A; for MIC VRE 700221: Table 4
Method: as §1
as §1, with “for each compound was” for “for each tested compound was”, “Standards Institute (CLSI).^6 In a” for “Standards Institute (CLSI). In a”, “concentration of test compound that” for “concentration of compound that”, “37° C. The concentration range tested for each compound during this study was 0.10 to 100 μM. DMSO served” for “37° C. (MIC values were supported by spectrophotometric readings at OD600). DMSO served”, “1% v/v. All MIC values were obtained from a minimum of three independent experiments.” for “1% v/v.”

[4] = system: Acinetobacter baumannii (ATCC 1794); experiment: MIC broth microdilution, A. baumannii 1794; format: cell-based; settings: for MIC A. baumannii 1794: Table 1A, in µM; for MIC A. bau. 1794: Table 4
Method: as §1
as §1, with “for each compound was” for “for each tested compound was”, “Standards Institute (CLSI).^6 In a” for “Standards Institute (CLSI). In a”, “concentration of test compound that” for “concentration of compound that”, “37° C. The concentration range tested for each compound during this study was 0.10 to 100 μM. DMSO served” for “37° C. (MIC values were supported by spectrophotometric readings at OD600). DMSO served”, “1% v/v. All MIC values were obtained from a minimum of three independent experiments.” for “1% v/v.”

[5] = system: methicillin-sensitive Staphylococcus aureus ATCC 29213; experiment: MIC broth microdilution, S. aureus 29213; format: cell-based
Method: as §1, with “The MIC was defined as the lowest concentration of compound that prevented bacterial growth after incubating 16 to 18 hours at 37° C.” left out
as §2

MRSA BAA-44 = experiment: MIC broth microdilution, MRSA BAA-44; format: cell-based, Staphylococcus aureus
Method: as §1, with “The MIC was defined as the lowest concentration of compound that prevented bacterial growth after incubating 16 to 18 hours at 37° C.” left out
as §2

[6] = system: SA-129 (clinical isolate); experiment: MIC broth microdilution, SA-129; format: cell-based, Staphylococcus aureus
Method: as §1, with “The MIC was defined as the lowest concentration of compound that prevented bacterial growth after incubating 16 to 18 hours at 37° C.” left out
as §2

[7] = system: MRSA-1 (clinical isolate); experiment: MIC broth microdilution, MRSA-1; format: cell-based, Staphylococcus aureus
Method: as §1, with “The MIC was defined as the lowest concentration of compound that prevented bacterial growth after incubating 16 to 18 hours at 37° C.” left out
as §2

[8] = system: methicillin-resistant Staphylococcus epidermidis (MRSE strain ATCC 35984); experiment: MIC broth microdilution, MRSE 35984; format: cell-based; settings: for MIC S. epidermidis MRSE 35984: Table 1A; for MIC MRSE 35984: Table 4
Method: as §1
as §1, with “for each compound was” for “for each tested compound was”, “Standards Institute (CLSI).^6 In a” for “Standards Institute (CLSI). In a”, “concentration of test compound that” for “concentration of compound that”, “37° C. The concentration range tested for each compound during this study was 0.10 to 100 μM. DMSO served” for “37° C. (MIC values were supported by spectrophotometric readings at OD600). DMSO served”, “1% v/v. All MIC values were obtained from a minimum of three independent experiments.” for “1% v/v.”

[9] = system: SA-156 (clinical isolate); experiment: MIC broth microdilution, SA-156; format: cell-based, Staphylococcus aureus
Method: as §1, with “The MIC was defined as the lowest concentration of compound that prevented bacterial growth after incubating 16 to 18 hours at 37° C.” left out
as §2

[10] = system: SA-147 (clinical isolate); experiment: MIC broth microdilution, SA-147; format: cell-based, Staphylococcus aureus
Method: as §1, with “The MIC was defined as the lowest concentration of compound that prevented bacterial growth after incubating 16 to 18 hours at 37° C.” left out
as §2

[11] = system: SA-138 (clinical isolate); experiment: MIC broth microdilution, SA-138; format: cell-based, Staphylococcus aureus
Method: as §1, with “The MIC was defined as the lowest concentration of compound that prevented bacterial growth after incubating 16 to 18 hours at 37° C.” left out
as §2

MRSE ATCC 35984 biofilms = experiment: Calgary Biofilm Device assay (MBC/MBEC), MRSE 35984; format: cell-based, Staphylococcus epidermidis; settings: Table 2A; CBD assay
Method: (§3) The lid of the Calgary device was then removed, washed and transferred to another 96-well plate containing 2-fold serial dilutions of the test compounds (the “challenge plate”). The total volume of media with compound in each well in the challenge plate is 150 μL. […] The lid was then removed from the challenge plate and MBC/MBEC values were determined using different final assays. […] The MBC values were determined as the concentration giving a lack of visible bacterial growth (i.e., turbidity). […] In select experiments, pegs from the Calgary device were removed from lead biofilm eradicators after final incubation, sonicated for 30 minutes in PBS and plated out to determine biofilm cell killing of lead biofilm-eradicating agents (i.e., colony forming unit per milliliter, CFU/mL).
(§4) Using a Calgary Biofilm Device, bacterial biofilms are established on pegs suspended to the bottom of a 96-well plate lid. Following biofilm establishment on lid pegs, lids are then transferred to new 96-well plates containing serial dilutions of test compound and allowed to incubate. After compound treatment, 96-well plate lids with pegs are once again transferred to 96-well plates containing fresh media. During this final phase of the assay, viable biofilms will grow and disperse planktonic cells into the media where they will grow and give a turbid well result. Conversely, wells that have no growth are a result of pegs that had eradicated bacterial biofilms. The lowest concentration at which no turbidity is observed is the minimum biofilm eradication concentration (MBEC). Using the Calgary Biofilm Device, both minimum biofilm eradication concentrations and minimum bactericidal concentrations (MBC) for planktonic bacterial can be determined using one assay from a single bacterial culture (FIG. 3A).

MRSA-2 biofilms = experiment: Calgary Biofilm Device assay (MBC/MBEC), MRSA-2; format: cell-based, Staphylococcus aureus; settings: Table 2A; CBD assay
Method: as §3, §4

MRSA BAA-1707 biofilms = experiment: Calgary Biofilm Device assay (MBC/MBEC), MRSA BAA-1707; format: cell-based, Staphylococcus aureus; settings: Table 2A; CBD assay
Method: as §3, §4

VRE ATCC 700221 biofilms = experiment: Calgary Biofilm Device assay (MBC/MBEC), VRE 700221; format: cell-based, Enterococcus faecium; settings: Table 2A; CBD assay
Method: as §3, §4

[12] = system: human red blood cells (hRBC); experiment: Hemolysis of red blood cells; format: cell-based
Method: The washing was repeated three times with the buffer. In a 96-well plate, test compounds were added to the buffer from DMSO stocks. […] The plate was then incubated for 1 hour at 37° C. After incubation, the plate was centrifuged for 5 minutes at 3,500 rpm. Then 80 μL of the supernatant was transferred to another 96-well plate and the optical density (OD) was read at 405 nm. DMSO served as our negative control (0% hemolysis) while Triton X served as our positive control (100% hemolysis). […] All reported data correspond to three independent experiments. Ten-point dose-response curves were generated in 96-well plates to determine 50% hemolysis (HC50 values) of red blood cells.
The washing was repeated three times with the buffer. In 96-well plate, the test compounds were added to the buffer. Then 50 μL of 2% of hRBCs in the buffer were added to the test plate to make the final concentrations ranging from 0.2 to 200 μM of each test compound. The plate was then incubated for 1 hour at 37° C. After incubation, the plate was centrifuged for 5 minutes at 3500 rpm and then 80 μL of the supernatant was transferred to another 96-well plate and the Optical Density (OD) was read at 405 nm. DMSO served as our negative control (0% haemolysis) and Triton X served as our positive control (100% haemolysis). The HC50 (concentration of test compound required to lyse red blood cells by 50%) was calculated by plotting the dose-response curve (not shown) with Graphpad Prism 6.0. All data were obtained from three independent haemolysis experiments.

CCCCCCCCCCCCCCCCn1cc[n+](CCCC)c1C.[Br-] [Compound 9]
MIC PAO1 ([1]; Table 1A): > 100 µM | MIC PAO1 ([1]; Table 4): >100 µM | MIC MRSA-2 ([2]; Table 1A): 2.35^a | MIC MRSA-2 ([2]; Table 1B): 2.35^a μM | MIC MRSA-2 ([2]; Table 3): 2.35^a μM | MIC MRSA-2 ([2]; Table 4): 2.35a micromolar | MIC MRSA BAA-1707 (MRSA BAA-1707; Table 1B): 2.35^a μM | MIC MRSA BAA-1707 (MRSA BAA-1707; Table 3): 2.35^a μM | MIC MRSA 1707 (MRSA BAA-1707; Table 4): 2.35a micromolar | MIC E. faecium VRE 700221 [3]: 1.17^a | MIC VRE 700221 [3]: 1.17a micromolar | MIC A. baumannii 1794 [4]: 12.5 | MIC A. bau. 1794 [4]: 12.5 µM | MIC S. aureus 29213 ([5]; Table 1B): 2.35^a μM | MIC S. aureus 29213 ([5]; Table 3): 2.35^a μM | MIC MRSA BAA-44 (MRSA BAA-44; Table 1B): 2.35^a μM | MIC MRSA BAA-44 (MRSA BAA-44; Table 3): 2.35^a μM | MIC ([6]; Table 1B): 1.56 µM | MIC ([6]; Table 3): 1.56 µM | MIC ([7]; Table 1B): 1.56 µM | MIC ([7]; Table 3): 1.56 µM | MIC S. epidermidis MRSE 35984 [8]: 1.17^a | MIC MRSE 35984 [8]: 1.17a micromolar | MIC SA-156 ([9]; Table 1B): 2.35^s μM | MIC SA-156 ([9]; Table 3): 2.35^a μM | MIC SA-147 ([10]; Table 1B): 1.17^a μM | MIC SA-147 ([10]; Table 3): 1.17^a μM | MIC SA-138 ([11]; Table 1B): 1.17^a μM | MIC SA-138 ([11]; Table 3): 1.17^a μM

CCCCCCCCCCCCCCCCn1cc[n+](Cc2ccc(F)cc2C(F)(F)F)c1C.[Br-] [Compound 16]
MIC PAO1 ([1]; Table 1A): > 100 µM | MIC PAO1 ([1]; Table 4): >100 µM | MIC MRSA-2 ([2]; Table 1A): 3.13 µM | MRSA-2 MIC ([2]; Table 2A): 3.13 µM | MIC MRSA-2 ([2]; Table 4): 3.13 µM | MIC E. faecium VRE 700221 [3]: 1.56 µM | VRE MIC ([3]; Table 2A): 1.56 µM | MIC VRE 700221 [3]: 1.56 µM | MRSE 35984 MBC (MRSE ATCC 35984 biofilms): 23.5^a/ μM | MRSE 35984 MBEC (MRSE ATCC 35984 biofilms): 23.5^a μM | MRSA-2 MBC (MRSA-2 biofilms): 62.5/62.5 μM | MRSA-2 MBEC (MRSA-2 biofilms): 62.5/62.5 μM | MIC A. baumannii 1794 [4]: >100 | MIC A. bau. 1794 [4]: >100 µM | MRSA BAA-1707 MBC (MRSA BAA-1707 biofilms): 62.5^b/ μM | MRSA BAA-1707 MBEC (MRSA BAA-1707 biofilms): 93.8^a μM | VRE MBC (VRE ATCC 700221 biofilms): 2.0 µM⁻¹ | VRE MBEC (VRE ATCC 700221 biofilms): 3.0^a μM | MIC S. epidermidis MRSE 35984 [8]: 3.13 µM | MIC ([8]; Table 2A, read-out: MRSE 35984 MIC): 3.13 µM | MIC MRSE 35984 [8]: 3.13 µM | HC50 ([12]; Table 1A): 10.7 µM | RBC HC50 ([12]; Table 4, concentration required to lyse 50% of red blood cells): 10.7 µM
